Experimental data: US20020052316A1, “Bax-mediated apoptosis modulating reagents and methods” (priority 1998, published 2002)
Residues, ends and D or L forms follow the SMILES beside them. *: point of attachment. Cbz = O=C(OCc1ccccc1)*; CH2F = FC*

Legend:
[1] = tested on: intact mitochondria isolated from rat heart; assay: Mitochondrial protein targeting in vitro (35S-labelled reticulocyte lysate translation products, alkali-resistant insertion); assay type: biochemical; set-up: BAX targeting supported by apoptotic high speed cytosol / mitochondrial membrane insertion of BAX with additional cytochrome c: dose or concentration left out as unconfirmed
Excerpt: To examine targeting of BAX into mitochondria in vitro, we employed the ^35S-labelled transcription-translation product of BAX cDNA in rabbit reticulocyte lysate combined with intact mitochondria isolated from rat heart. This is a well documented system that faithfully reflects in vivo import of diverse mitochondrial proteins, including the insertion of integral proteins into the mitochondrial outer membrane (Li and Shore, Science 256:1815-1817, 1992; McBride et al., J. Cell Biol. 119:1451-1457, 1992).
The results of our investigation as to whether or not apoptotic cell extract supports BAX targeting to mitochondria in vitro are presented in FIGS. 3A-3D. Briefly, in the experiments were conducted as follows. In FIG. 3A, ^35S-labeled transcription-translation products of BAX cDNA in rabbit reticulocyte lysate (BAX and BAXΔART) were incubated with purified, intact mitochondria from rat heart in a standard protein import reaction supplemented with 1 mM dATP (FIG. 3A, lanes 3, 4, 6, and 7) or 1 mM dATP and […] apoptotic cytosol protein (Extract) (FIG. 3A, lanes 4 and 7), in a volume of […]. At the end of the reaction, mitochondria were recovered by centrifugation and the pellets analyzed by SDS PAGE and fluorography either directly or after extraction with […], pH 11.5 (Alkali) (FIG. 3A, lanes 5-7).
The heart of one male Sprague Dawley rat (approximately 250 grams) was placed in approximately 100 ml HIM buffer (0.2% w/v BSA, 200 mM mannitol, 70 mM sucrose, 10 mM HEPES-KOH, 1 mM EGTA, pH 7.5) on ice, squeezed several times to force out blood, and transferred to 7.5 ml HIM in a 15-ml corex tube. All subsequent steps were conducted at 4° C. The heart was homogenized with a Polytron homogenizer (Brinkmann Instruments Inc., Westbury, N.Y.) operating for 1 second at setting 6.5. Nuclei and unbroken cells were pelleted at 1800 rpm for 10 min. in a Sorvall SS34 rotor. The supernatant was centrifuged for 10 min. at 7000 rpm. The resulting pellet was resuspended in HIM (minus BSA), centrifuged at 1800 rpm and the mitochondria were collected at 7000 rpm. The mitochondrial pellet was resuspended in cMRM (250 mM sucrose, 10 mM HEPES-KOH, 1 mM ATP, 5 mM Na Succinate, 0.08 mM ADP, 2 mM K2HPO4, pH 7.5) at a concentration of 1 mg of mitochondrial protein per ml, and adjusted to 1 mM dithiothreitol just before use.
cDNAs were transcribed and translated in the presence of ^35S-methionine in a cell-free rabbit reticulocyte lysate system (Promega Corp., Madison, Wis.) according to the manufacturer's directions. For a standard mitochondrial protein import reaction, 5 μl of translation reaction was incubated with 20 μl of Buffer A (20 mM HEPES-KOH, 10 mM KCl, 2.5 mM MgCl2, 1 mM EDTA, 1 mM EGTA, 1 mM dithiothreitol, pH 7.5) and 25 μl mitochondria or mitoplasts in cMRM (1 mg protein / ml) at 30° C or 37° C. for 30 min. to 2 hours. The import reaction was then layered on a 500 μl cushion of 1×MRM (250 mM sucrose, 10 mM HEPES-KOH, pH 7.5) and centrifuged for 4 min. at top speed in a microfuge at 4° C. For alkali extraction, the mitochondrial pellet was resuspended (0.25 mg protein / ml) in freshly prepared 0.1 M Na2CO3, pH 11.5, and incubated for 30 min. on ice. The membranes were then pelleted in an airfuge (commercially available from Beckman Instruments Canada Inc., Montreal, PQ, Canada) operating for 10 min. at 30 psi. The pellet was analyzed by SDS-PAGE and fluorography. […]

[2] = tested on: caspases of KB apoptotic cell extract (24 kDa PARP cleavage product); assay: Poly(ADP ribosyl) polymerase (PARP) cleavage by KB apoptotic cell extract; assay type: biochemical, human; set-up: ability of the extract to drive PARP cleavage: dose or concentration left out as unconfirmed
Description: In FIG. 3C, ^35S-labeled transcription-translation product of PARP cDNA in reticulocyte lysate (5% by volume) was incubated with (FIG. 3C, lanes 2 and 3) or without (FIG. 3C, lane 1) […] apoptotic cytosol protein in a total volume of […], in the presence (FIG. 3C, lane 3) or absence (FIG. 3C, lanes 1 and 2) of 1 mM dATP, and equivalent portions analyzed for the appearance of the 24 kDa cleavage product of poly(ADP ribosyl) polymerase (24 K PARP) by 12% SDS PAGE and fluorography.
Extract was prepared at 4° C. according to the procedure of Liu et al. (supra) with some minor modifications. Briefly, human KB epithelial cells were harvested in PBS containing 1.3 mM Na citrate and 0.6 mM EDTA. The cell pellet was washed in Buffer A/ext (50 mM PIPES, 50 mM KCl, 5 mM EGTA, 2 mM MgCl2, 1 mM dithiothreitol, 20 μM cytochalasin B, pH 7.4), then resuspended in an equal volume of Buffer A/ext. The cells were disrupted by 5 cycles of freeze-thaw interspersed by 5 strokes with a Wheaton glass homogenizer fitted with a B pestle, and centrifuged at […] for 1 hour in a Beckman Ti75 rotor. The resulting supernatant contained 10 mg protein / ml. […]

FL5.12 cells = assay: BAX integration into mitochondrial membrane of FL5.12 cells after IL-3 withdrawal (alkali extraction, anti-BAX Western blot); assay type: cell-based; conditions: FL5.12 cells deprived of IL-3 for 12 hours, 50 mM zVAD-fmk
Description: In the absence of a death signal during apoptosis of a cell, BAX is found free in the cytosol of the cell or is peripherally associated with endocellular membrane surfaces. We performed a Western blotting analysis of mitochondrial membranes from FL5.12 cells, immunoblotting anti-BAX antibodies (antibodies commercially available from, for example, Santa Cruz Biotech., Santa Cruz, Calif.; FIG. 1). Briefly, the mitochondrial fraction was prepared from FL5.12 cells maintained in IL-3 (FIG. 1, lanes 1, 2, 5, and 6) or deprived of IL-3 for 12 hours (FIG. 1, lanes 3, 4, 7, and 8), in the absence (FIG. 1, lanes 1, 3, 5, and 7) or presence (FIG. 1, lanes 2, 4, 6, and 8) of […] zVAD-fmk for 12 hours by centrifuging at 200,000×g for 45 min. to yield supernatant and pellet fractions (the pellet fraction contains the mitochondrial membranes). The mitochondrial fractions were analyzed either directly (FIG. 1, lanes 1-4) or following extraction with 0.1 M Na2CO3, pH 11.5 (FIG. 1, lanes 5-8).
Cells were collected, washed twice with phosphate buffered saline, suspended in 2 ml HIM buffer (0.2% w/v BSA, 200 mM mannitol, 70 mM sucrose, 10 mM HEPES-KOH, 1 mM EGTA, pH 7.5), and subjected to homogenization with a Polytron homogenizer (Brinkmann Instruments Inc., Westbury, N.Y.) for 4 bursts of 10 seconds each at a setting of 6.5. All subsequent steps were conducted at 4° C. […]

COS-7 and CHO cells = assay: Immunofluorescence microscopy with anti-HA antibody of transfected cells; assay type: cell-based; conditions: 24 hours
Excerpt: Thus, the enhanced cytotoxicity of HA-BAXΔART compared to HA-BAX in vivo correlates with inhibition of BAX membrane integration by the ART domain in vitro.

[3] = extract depleted of cytochrome c by immunoadsorption
[4] = zVAD-fmk added before dATP and incubation at 37° C.

BAX: full length murine BAX proapoptotic protein, translated in rabbit reticulocyte lysate
mitochondrial targeting / membrane integration in vitro ([1]; absence of apoptotic cell extract, resistance to extraction at alkaline pH): failed to target mitochondria

cytochrome c: cytochrome c protein added to apoptotic cell extract or reticulocyte lysate
PARP cleavage after add-back to cytochrome c depleted extract [2, 3]: re-instated | mitochondrial membrane insertion of BAX with additional cytochrome c ([1]; cytochrome c added to apoptotic cytosol): No improvement | BAX targeting after add-back to cytochrome c depleted extract [1, 3]: re-instated | BAX targeting with cytochrome c alone ([1]; reticulocyte lysate translation mixtures, no extract): failed to stimulate

COC(=O)C[C@H](NC(=O)[C@H](C)NC(=O)[C@@H](NC(=O)OCc1ccccc1)C(C)C)C(=O)CF [zVAD-fmk, reference compound] (Cbz-Val-Ala-Asp(OMe)-CH2F)
ability of the extract to drive PARP cleavage [2, 4]: abolished | BAX targeting supported by apoptotic high speed cytosol [1, 4]: effectively inhibit | BAX integration into mitochondrial membrane in response to IL-3 withdrawal (FL5.12 cells; alkaline-resistant BAX): partly blocked | recovery of total BAX associated with mitochondria (FL5.12 cells; no alkali extraction): did not significantly influence

HA-BAX: hemagglutinin epitope tagged BAX expressed by transfection
cells expressing the HA-tagged protein (COS-7 and CHO cells): 7.5%
